From ChEMBL document CHEMBL5030517, “6-Halopyridylmethylidene Penicillin-Based Sulfones Efficiently Inactivate the Natural Resistance of Pseudomonas aeruginosa to β-Lactam Antibiotics” (J Med Chem, 2021)
In brackets after ≈: the same amount, converted by molar mass. Activity calls are given as the source filed them. The calls are words filed in the database; no cut-off is given here.

Key:
[1] = system: Pseudomonas aeruginosa PAO1; assay: Inhibition of beta-lactamase activity in Pseudomonas aeruginosa PAO1 17/14-017 (ST-235) assessed as MIC for cefpodoxime antibacterial activity at 4 mg/L by broth microdilution method
[2] = system: Pseudomonas aeruginosa PAO1; assay: Inhibition of beta-lactamase activity in Pseudomonas aeruginosa PAO1 36/14-210 (ST-235) assessed as MIC for cefpodoxime antibacterial activity at 4 mg/L by broth microdilution method
[3] = system: Pseudomonas aeruginosa PAO1; assay: Inhibition of beta-lactamase activity in Pseudomonas aeruginosa PAO1 deltaC+pUCP-(PDC-1) assessed as MIC for cefpodoxime antibacterial activity at 16 mg/L by broth microdilution method
[4] = system: Pseudomonas aeruginosa PAO1; assay: Inhibition of beta-lactamase activity in Pseudomonas aeruginosa PAO1 deltadacB assessed as MIC for cefpodoxime antibacterial activity at 16 mg/L by broth microdilution method
[5] = system: Pseudomonas aeruginosa PAO1; assay: Inhibition beta lactamase PDC-1 in Pseudomonas aeruginosa PAO1 assessed as maximum rate of inactivation using nitrocefin as substrate measured by 96 well microtitre plate
[6] = system: Pseudomonas aeruginosa PAO1; assay: Inhibition of beta-lactamase activity in Pseudomonas aeruginosa PAO1 PAHUAC-14 (ST-966) assessed as MIC for cefpodoxime antibacterial activity at 4 mg/L by broth microdilution method
[7] = system: Pseudomonas aeruginosa PAO1; assay: Inhibition of beta-lactamase activity in Pseudomonas aeruginosa PAO1 deltadacBdeltaampD assessed as MIC for cefpodoxime antibacterial activity at 16 mg/L by broth microdilution method
[8] = system: Pseudomonas aeruginosa PAO1; assay: Inhibition of beta-lactamase activity in Pseudomonas aeruginosa PAO1 deltadacBdeltadacC assessed as MIC for cefpodoxime antibacterial activity at 16 mg/L by broth microdilution method
[9] = system: Pseudomonas aeruginosa PAO1; assay: Inhibition of beta lactamase PDC-1 in Pseudomonas aeruginosa PAO1 assessed as reduction in enzyme activity using nitrocefin as chromogenic substrate preincubated for 10 min using 96 well microtiter plate
[10] = system: Pseudomonas aeruginosa PAO1; assay: Inhibition of beta-lactamase activity in Pseudomonas aeruginosa PAO1 deltaampD assessed as MIC for cefpodoxime antibacterial activity at 4 mg/L by broth microdilution method
[11] = system: Pseudomonas aeruginosa PAO1; assay: Inhibition of beta-lactamase activity in Pseudomonas aeruginosa PAO1 23/14-053 (ST-309) assessed as MIC for cefpodoxime antibacterial activity at 4 mg/L by broth microdilution method
[12] = system: Pseudomonas aeruginosa PAO1; assay: Inhibition of beta-lactamase activity in Pseudomonas aeruginosa PAO1 deltaC assessed as MIC for cefpodoxime antibacterial activity at 4 mg/L by broth microdilution method
[13] = system: Pseudomonas aeruginosa PAO1; assay: Inhibition of beta-lactamase activity in Pseudomonas aeruginosa PAO1 53/22-113 (ST-244) assessed as MIC for cefpodoxime antibacterial activity at 4 mg/L by broth microdilution method
Pseudomonas aeruginosa = assay: Inhibition of beta lactamase PDC-1 in Pseudomonas aeruginosa PAO1 for 30 min using MALDI TOF-MS analysis
[14] = Inhibition beta lactamase PDC-1 in Pseudomonas aeruginosa PAO1 assessed as apparent inhibition constant using nitrocefin as substrate measured by 96 well microtitre plate; conditions: read-out: Ki(app)
[15] = system: Pseudomonas aeruginosa PAO1; assay: Inhibition of beta-lactamase activity in Pseudomonas aeruginosa PAO1 assessed as MIC for cefpodoxime antibacterial activity at 16 mg/L by broth microdilution method
[16] = system: Pseudomonas aeruginosa PAO1; assay: Inhibition of beta-lactamase activity in Pseudomonas aeruginosa PAO1 6/04-224 (ST-175) assessed as MIC for cefpodoxime antibacterial activity at 16 mg/L by broth microdilution method
[17] = system: Pseudomonas aeruginosa PAO1; assay: Inhibition of beta-lactamase activity in Pseudomonas aeruginosa PAO1 deltaC+pUCP-(PDC-5) assessed as MIC for cefpodoxime antibacterial activity at 4 mg/L by broth microdilution method
[18] = system: Pseudomonas aeruginosa PAO1; assay: Inhibition beta lactamase PDC-1 in Pseudomonas aeruginosa PAO1 assessed half life of nitrocefin substrate measured by 96 well microtitre plate assay
[19] = system: Pseudomonas aeruginosa PAO1; assay: Inhibition of beta-lactamase activity in Pseudomonas aeruginosa PAO1 PAHUAC-27(ST-22) assessed as MIC for cefpodoxime antibacterial activity at 4 mg/L by broth microdilution method
[20] = system: Pseudomonas aeruginosa PAO1; assay: Inhibition of beta-lactamase activity in Pseudomonas aeruginosa PAO1 13/09-018 (ST-175) assessed as MIC for cefpodoxime antibacterial activity at 16 mg/L by broth microdilution method
[21] = system: Pseudomonas aeruginosa PAO1; assay: Inhibition of beta-lactamase activity in Pseudomonas aeruginosa PAO1 deltaDdeltsDh2deltaDh3 assessed as MIC for cefpodoxime antibacterial activity at 4 mg/L by broth microdilution method
[22] = system: Pseudomonas aeruginosa PAO1; assay: Inhibition of beta-lactamase activity in Pseudomonas aeruginosa PAO1 23/14-053 (ST-309) assessed as MIC for cefpodoxime antibacterial activity at 16 mg/L by broth microdilution method
[23] = system: Pseudomonas aeruginosa PAO1; assay: Inhibition of beta-lactamase activity in Pseudomonas aeruginosa PAO1 17/14-017 (ST-235) assessed as MIC for cefpodoxime antibacterial activity at 16 mg/L by broth microdilution method
[24] = system: Pseudomonas aeruginosa PAO1; assay: Inhibition of beta-lactamase activity in Pseudomonas aeruginosa PAO1 deltadacBdeltapbpGdeltadacC assessed as MIC for cefpodoxime antibacterial activity at 4 mg/L by broth microdilution method
[25] = system: Pseudomonas aeruginosa PAO1; assay: Inhibition of beta-lactamase activity in Pseudomonas aeruginosa PAO1 deltadacB assessed as MIC for cefpodoxime antibacterial activity at 4 mg/L by broth microdilution method
[26] = system: Pseudomonas aeruginosa PAO1; assay: Inhibition beta lactamase PDC-1 in Pseudomonas aeruginosa PAO1 assessed as inactivation efficiency by measuring acylation rate (k2/K) using nitrocefin as substrate measured by 96 well microtitre plate
[27] = system: Pseudomonas aeruginosa PAO1; assay: Inhibition of beta-lactamase activity in Pseudomonas aeruginosa PAO1 6/04-224 (ST-175) assessed as MIC for cefpodoxime antibacterial activity at 4 mg/L by broth microdilution method
[28] = system: Pseudomonas aeruginosa PAO1; assay: Inhibition of beta-lactamase activity in Pseudomonas aeruginosa PAO1 deltaC assessed as MIC for cefpodoxime antibacterial activity at 16 mg/L by broth microdilution method
[29] = system: Pseudomonas aeruginosa PAO1; assay: Inhibition of beta-lactamase activity in Pseudomonas aeruginosa PAO1 deltaC+pUCP-(PDC-1) assessed as MIC for cefpodoxime antibacterial activity at 4 mg/L by broth microdilution method
[30] = system: Pseudomonas aeruginosa PAO1; assay: Inhibition of beta-lactamase activity in Pseudomonas aeruginosa PAO1 deltadacBdeltapbpGdeltadacC assessed as MIC for cefpodoxime antibacterial activity at 16 mg/L by broth microdilution method
[31] = system: Pseudomonas aeruginosa PAO1; assay: Inhibition beta lactamase PDC-1 in Pseudomonas aeruginosa PAO1 assessed as ratio of kinact/K1 using nitrocefin as substrate measured by 96 well microtitre plate
[32] = system: Pseudomonas aeruginosa PAO1; assay: Inhibition of beta-lactamase activity in Pseudomonas aeruginosa PAO1 36/14-210 (ST-235) assessed as MIC for cefpodoxime antibacterial activity at 16 mg/L by broth microdilution method
[33] = Inhibition beta lactamase PDC-1 in Pseudomonas aeruginosa PAO1 using nitrocefin as substrate measured by 96 well microtitre plate
[34] = system: Pseudomonas aeruginosa PAO1; assay: Inhibition of beta-lactamase activity in Pseudomonas aeruginosa PAO1 assessed as MIC for cefpodoxime antibacterial activity at 4 mg/L by broth microdilution method
[35] = system: Pseudomonas aeruginosa PAO1; assay: Inhibition of beta-lactamase activity in Pseudomonas aeruginosa PAO1 deltaDdeltsDh2deltaDh3 assessed as MIC for cefpodoxime antibacterial activity at 16 mg/L by broth microdilution method
[36] = system: Pseudomonas aeruginosa PAO1; assay: Inhibition of beta-lactamase activity in Pseudomonas aeruginosa PAO1 deltaC+pUCP-(PDC-5) assessed as MIC for cefpodoxime antibacterial activity at 16 mg/L by broth microdilution method
[37] = system: Pseudomonas aeruginosa PAO1; assay: Inhibition of beta-lactamase activity in Pseudomonas aeruginosa PAO1 13/09-018 (ST-175) assessed as MIC for cefpodoxime antibacterial activity at 4 mg/L by broth microdilution method
[38] = system: Pseudomonas aeruginosa PAO1; assay: Inhibition of beta-lactamase activity in Pseudomonas aeruginosa PAO1 53/22-113 (ST-244) assessed as MIC for cefpodoxime antibacterial activity at 16 mg/L by broth microdilution method
[39] = system: Pseudomonas aeruginosa PAO1; assay: Inhibition of beta-lactamase activity in Pseudomonas aeruginosa PAO1 PAHUAC-27(ST-22) assessed as MIC for cefpodoxime antibacterial activity at 16 mg/L by broth microdilution method
[40] = system: Pseudomonas aeruginosa PAO1; assay: Inhibition of beta-lactamase activity in Pseudomonas aeruginosa PAO1 deltadacBdeltadacC assessed as MIC for cefpodoxime antibacterial activity at 4 mg/L by broth microdilution method
[41] = system: Pseudomonas aeruginosa PAO1; assay: Inhibition beta lactamase PDC-1 in Pseudomonas aeruginosa PAO1 assessed as deacylation off-rate using nitrocefin as substrate at 30 mins measured by 96 well microtitre plate
[42] = system: Pseudomonas aeruginosa PAO1; assay: Inhibition of beta-lactamase activity in Pseudomonas aeruginosa PAO1 deltadacBdeltaampD assessed as MIC for cefpodoxime antibacterial activity at 4 mg/L by broth microdilution method
[43] = system: Pseudomonas aeruginosa PAO1; assay: Inhibition of beta-lactamase activity in Pseudomonas aeruginosa PAO1 PAHUAC-14 (ST-966) assessed as MIC for cefpodoxime antibacterial activity at 16 mg/L by broth microdilution method
[44] = system: Pseudomonas aeruginosa PAO1; assay: Inhibition of beta-lactamase activity in Pseudomonas aeruginosa PAO1 deltaampD assessed as MIC for cefpodoxime antibacterial activity at 16 mg/L by broth microdilution method

## C[C@]1(COC(=O)Cc2ccc(O)c(O)c2)[C@H](C(=O)O)N2C(=O)/C(=C/c3ccccn3)[C@H]2S1(=O)=O
[1]
  MIC: 2 mg/L (≈ 4.09 µM)
[2]
  MIC: 16 mg/L (≈ 32.8 µM)
[3]
  MIC: 1 mg/L (≈ 2.05 µM)
[4]
  MIC: 0.5 mg/L (≈ 1.02 µM)
[5]
  Kinact: 0.046 s⁻¹
[6]
  MIC: 16 mg/L (≈ 32.8 µM)
[7]
  MIC: 1 mg/L (≈ 2.05 µM)
[8]
  MIC: 0.5 mg/L (≈ 1.02 µM)
[9]
  inhibition: inactive
[10]
  MIC: 2 mg/L (≈ 4.09 µM)
[11]
  MIC: 1 mg/L (≈ 2.05 µM)
[12]
  MIC: 1 mg/L (≈ 2.05 µM)
[13]
  MIC: 8 mg/L (≈ 16.4 µM)
Pseudomonas aeruginosa
  inhibition: inactive
[14]
  Ki: 0.053 µM
[15]
  MIC: 1 mg/L (≈ 2.05 µM)
[16]
  MIC: 8 mg/L (≈ 16.4 µM)
[17]
  MIC: 2 mg/L (≈ 4.09 µM)
[18]
  T1/2: 1.37 h
[19]
  MIC: 2 mg/L (≈ 4.09 µM)
[20]
  MIC: 8 mg/L (≈ 16.4 µM)
[21]
  MIC: 4 mg/L (≈ 8.19 µM)
[22]
  MIC: 1 mg/L (≈ 2.05 µM)
[23]
  MIC: 2 mg/L (≈ 4.09 µM)
[24]
  MIC: 1 mg/L (≈ 2.05 µM)
[25]
  MIC: 1 mg/L (≈ 2.05 µM)
[26]
  k2/K inactivation efficiency: 1.5 M⁻¹ s⁻¹
[27]
  MIC: 8 mg/L (≈ 16.4 µM)
[28]
  MIC: 1 mg/L (≈ 2.05 µM)
[29]
  MIC: 1 mg/L (≈ 2.05 µM)
[30]
  MIC: 0.5 mg/L (≈ 1.02 µM)
[31]
  K: 6.3 10^5/M/s
[32]
  MIC: 8 mg/L (≈ 16.4 µM)
[33]
  IC50: 0.0061 µM
[34]
  MIC: 1 mg/L (≈ 2.05 µM)
[35]
  MIC: 0.5 mg/L (≈ 1.02 µM)
[36]
  MIC: 2 mg/L (≈ 4.09 µM)
[37]
  MIC: 2 mg/L (≈ 4.09 µM)
[38]
  MIC: 4 mg/L (≈ 8.19 µM)
[39]
  MIC: 1 mg/L (≈ 2.05 µM)
[40]
  MIC: 1 mg/L (≈ 2.05 µM)
[41]
  K: 9 10^-2/min
[42]
  MIC: 8 mg/L (≈ 16.4 µM)
[43]
  MIC: 2 mg/L (≈ 4.09 µM)
[44]
  MIC: 1 mg/L (≈ 2.05 µM)
